{
  "source": "patent US20220267736A1",
  "about": "“PLURIPOTENT STEM CELL AGGREGATION SUPPRESSOR” (KANEKA CORPORATION, priority 2017, published 2022)",
  "test_system": "human iPS cells (TkDN4-M)",
  "assay": "Cell aggregate size distribution (widest portion) from micrographs during suspension culture",
  "format": "cell-based",
  "details": "cytochalasin D 20 nM, jasplakinolide 20 nM, demecolcine 10 ng/mL",
  "experimental": "Cell suspensions were prepared in the same manner as in Example 2, and separately, the concentrations of the suppressors of cell aggregation were adjusted so that the final concentration of demecolcine (same as above) was 10 mg/mL (26.9 mM), the final concentration of cytochalasin D (same as above) was 0.51 mg/mL (1 mM), the concentration of DMSO (the same as above) was the stock concentration, or the final concentration of jasplakinolide (Cayman, 11705) was 0.14 mg/mL (0.2 mM). Then the concentration-adjusted cell aggregation suppressors were added to the cell suspensions so that the final concentration of demecolcine was 10 ng/mL, the final concentration of cytochalasin D was 20 nM, the final concentration of DMSO was 1% (v/v), or the final concentration of jasplakinolide was 20 nM, and the cells were seeded at a rate of 4 mL/well in a 6-well plate for suspension culture (Sumitomo Bakelite Co., Ltd., Japan). The cell-seeded plate was subjected to a swirling culture on a rotary shaker (OPTIMA, Inc., Japan) at a speed of 90 rpm along the horizontal plane to draw a circle with a swirling width (diameter) of 25 mm and cells were subjected to suspension culture under the environment of 5% CO2 and 37° C. After the next day of culture (Day 1 of culture), the culture medium was exchanged daily with a fresh culture medium (Essential 8™ culture medium containing BSA (Wako Pure Chemical Industries, Ltd.) at a final concentration of 5 mg/mL), and the culture was continued until 5 days after the start of culture. Images were obtained by phase contrast microscopy every day during culture. While 182 to 252 cell aggregates in images obtained on Day 1 of culture being observed and compared using a micrograph scale, the width (referred to as “φ”) of the widest portion of each cell aggregate was measured, distribution thereof was examined, and average±standard deviation was calculated. The concentration of glucose contained in the culture supernatant collected at the time of culture medium exchange was measured with biosensor BF-5iD (Prince Measuring Equipment Co., Ltd.) to calculate glucose consumption.",
  "key": {"[1]": {"details": "Day 1, size range 40− μm, DMSO 1%"}, "[2]": {"details": "Day 1, size range 60− μm, DMSO 1%"}, "[3]": {"details": "Day 1, size range 80− μm, DMSO 1%"}, "[4]": {"details": "Day 1, size range 100− μm, DMSO 1%"}, "[5]": {"details": "Day 1, size range 120− μm, DMSO 1%"}, "[6]": {"details": "Day 1, size range 140− μm, DMSO 1%"}, "[7]": {"details": "Day 1, size range 160− μm, DMSO 1%"}, "[8]": {"details": "Day 1, size range 180− μm, DMSO 1%"}, "[9]": {"details": "Day 1, size range 200− μm, DMSO 1%"}, "[10]": {"details": "Day 1, size range 220− μm, DMSO 1%"}, "[11]": {"details": "Day 1, size range 240− μm, DMSO 1%"}, "[12]": {"details": "Day 1, size range 260− μm, DMSO 1%"}, "[13]": {"details": "Day 1, size range 280− μm, DMSO 1%"}, "[14]": {"details": "Day 1, size range 300− μm, DMSO 1%"}},
  "data": [
    {"smiles": "C/C1=C\\[C@H](C)C[C@H](C)OC(=O)C[C@H](c2ccc(O)cc2)NC(=O)[C@@H](Cc2c(Br)[nH]c3ccccc23)N(C)C(=O)[C@H](C)NC(=O)[C@@H](C)C1", "note": "[jasplakinolide]", "values": [
      {"measurement": "percentage of cell aggregates whose size (diameter) was 40 μm or more and 300 μm or less, relative to the total cell aggregate count", "setting": "Day 1, DMSO 1%", "value": 100, "unit": "%"},
      {"measurement": "percentage of cell aggregates whose size (diameter) was 60 μm or more and 300 μm or less", "setting": "Day 1, DMSO 1%", "value": 98.1, "unit": "%"},
      {"measurement": "percentage of cell aggregates whose size (diameter) was 80 μm or more and 300 μm or less", "setting": "Day 1, DMSO 1%", "value": 96.2, "unit": "%"},
      {"measurement": "percentage of cell aggregates whose size (diameter) was 100 μm or more and 300 μm or less", "setting": "Day 1, DMSO 1%", "value": 95.7, "unit": "%"},
      {"measurement": "Number of cell aggregates by size", "setting": "[1]", "value": 4},
      {"measurement": "Percentage of cell aggregates by size", "setting": "[1]", "value": 1.9, "unit": "%"},
      {"measurement": "Number of cell aggregates by size", "setting": "[2]", "value": 4},
      {"measurement": "Percentage of cell aggregates by size", "setting": "[2]", "value": 1.9, "unit": "%"},
      {"measurement": "Number of cell aggregates by size", "setting": "[3]", "value": 1},
      {"measurement": "Percentage of cell aggregates by size", "setting": "[3]", "value": 0.5, "unit": "%"},
      {"measurement": "Number of cell aggregates by size", "setting": "[4]", "value": 8},
      {"measurement": "Percentage of cell aggregates by size", "setting": "[4]", "value": 3.9, "unit": "%"},
      {"measurement": "Number of cell aggregates by size", "setting": "[5]", "value": 23},
      {"measurement": "Percentage of cell aggregates by size", "setting": "[5]", "value": 11.2, "unit": "%"},
      {"measurement": "Number of cell aggregates by size", "setting": "[6]", "value": 52},
      {"measurement": "Percentage of cell aggregates by size", "setting": "[6]", "value": 25.2, "unit": "%"},
      {"measurement": "Number of cell aggregates by size", "setting": "[7]", "value": 66},
      {"measurement": "Percentage of cell aggregates by size", "setting": "[7]", "value": 32.0, "unit": "%"},
      {"measurement": "Number of cell aggregates by size", "setting": "[8]", "value": 30},
      {"measurement": "Percentage of cell aggregates by size", "setting": "[8]", "value": 14.6, "unit": "%"},
      {"measurement": "Number of cell aggregates by size", "setting": "[9]", "value": 9},
      {"measurement": "Percentage of cell aggregates by size", "setting": "[9]", "value": 4.4, "unit": "%"},
      {"measurement": "Number of cell aggregates by size", "setting": "[10]", "value": 4},
      {"measurement": "Percentage of cell aggregates by size", "setting": "[10]", "value": 1.9, "unit": "%"},
      {"measurement": "Number of cell aggregates by size", "setting": "[11]", "value": 1},
      {"measurement": "Percentage of cell aggregates by size", "setting": "[11]", "value": 0.5, "unit": "%"},
      {"measurement": "Number of cell aggregates by size", "setting": "[12]", "value": 1},
      {"measurement": "Percentage of cell aggregates by size", "setting": "[12]", "value": 0.5, "unit": "%"},
      {"measurement": "Number of cell aggregates by size", "setting": "[13]", "value": 2},
      {"measurement": "Percentage of cell aggregates by size", "setting": "[13]", "value": 1.0, "unit": "%"},
      {"measurement": "Number of cell aggregates by size", "setting": "[14]", "value": 1},
      {"measurement": "Percentage of cell aggregates by size", "setting": "[14]", "value": 0.5, "unit": "%"},
      {"measurement": "average ± standard deviation of cell aggregate sizes (diameters)", "setting": "Day 1 of culture, DMSO 1% (v/v), Y-27632 10 μM", "value": "162.7±37.2", "unit": "μm"}
    ]}
  ]
}
